Assay results published in patent US20230398123A1, “METHODS TO TREAT INFLAMMATORY BOWEL DISEASE” (SHANGHAI PHARMACEUTICALS HOLDING CO., LTD., priority 2021, published 2023).
“Also recorded” adds a separate entry of the source. Like-named read-outs stand apart in the source and are kept apart here.

What was measured:
[1] = tested on: IL-6; assay: IL-6 release from human ulcerative colitis colon mucosal biopsies (SEB-stimulated, multiplex ELISA); format: cell-based; settings: about 18 hours, 50 ng/mL SEB
[2] = Bioavailability in rats; settings: rat, in vivo, oral
[3] = Bioavailability in monkeys; settings: monkey, in vivo, oral
[4] = tested on: DNBS-induced colitis in Wistar rats; assay: DNBS-induced colitis in Wistar rats; format: in vivo; settings: day 1-7
[5] = tested on: TNBS-induced colitis in C57BL/6 mice; assay: TNBS-induced colitis in C57BL/6 mice, macroscopic and microscopic colon observations; format: in vivo; settings: for histology of colon sections (H&E): day 3 after TNBS instillation (FIG. 5B)
Source text: Colitis was induced in C57BL/6 mice by instillation of trinitrobenzene sulfonic acid (TNBS) in the colons according to conventional methods. See Antoniou, et al., Ann. Medicine and Surgery, vol. 11, 9-15 (2016).
FIGS. 5A-B show histological observations of colon sections from C57BL/6 mice. All animals were sacrificed on day 3 after the TNBS instillation to induce colitis as described above, and tissues are visualized by H&E (hematoxylin and eosin) staining.
The second panel in FIG. 5B is tissue from a colon instilled with TNBS and treated with 10 mg/kg SPH-X twice daily, administered intraperitoneally.

[6] = tested on: TNF-α; assay: Western blot of TNF-α protein in mucosal lysates, TNBS colitis mice; format: in vivo; settings: 10 mg/kg twice daily for three days, listed as SPH-X
Procedure: To assess the effect of SPH-X in this model at the molecular level, colitis was again induced in mice by TNBS instillation (three per treatment group), using ethanol as a control. Test animals were treated with either vehicle (PBS) or SPH-X (10 mg/kg i.p., twice daily) for three days following the TNBS injury and were then sacrificed. Colonic mucosa were isolated from each test animal and used to prepare mRNA. The mRNA was reverse transcribed to provide cDNAs.
Finally, mucosal lysates from test animals treated as described for the cytokine analysis were prepared and analyzed by Western blot to see how SPH-X affects TNF-α protein levels in the colitis model.

[7] = tested on: IL-17A; assay: IL-17A release from human ulcerative colitis colon mucosal biopsies (multiplex ELISA); format: cell-based; settings: some UC patients; 10-300 nM
[8] = tested on: TNF-α; assay: TNF-α release from human ulcerative colitis colon mucosal biopsies (multiplex ELISA); format: cell-based; settings: some UC patients; 10-300 nM
[9] = Tekturna (aliskiren) label; cited from earlier work
[10] = tested on: TNBS-induced colitis in RenTgMK mice; settings: TNBS instillation, aliskiren by intraperitoneal injection; cited from earlier work
[11] = UC Donor C, Formula (I) malate salt 10-300 nM, Birb 796 1 μM

## Cc1ccc(-n2nc(C(C)(C)C)cc2NC(=O)Nc2ccc(OCCN3CCOCC3)c3ccccc23)cc1 [Birb 796, reference compound]
[1]; [11]
  IL-6 production: reduction of IL-6

## COC(=O)NCCCn1nc([C@@H](C)N(C(=O)C2CNCCO2)C2CC2)c2ccc(C)nc21 (stereo partly drawn) [Formula (I)]
[2]
  bioavailability: 11.5 to 24.5%
[3]
  bioavailability: 3.3 to 11.3%

## COC(=O)NCCCn1nc([C@@H](C)N(C(=O)C2CNCCO2)C2CC2)c2ccc(C)nc21.O=C(O)C[C@H](O)C(=O)O (stereo partly drawn) [Formula I malate salt]
[4]; 30 mg/kg q.d. p.o.
  colon length: significantly increased colon length
[5]; 5 mg/kg BID, listed as SPH-X
  histology of colon sections (H&E): substantially prevents or treats any injury caused by TNBS instillation; also recorded: treats or prevents such damage
[5]; 10 mg/kg intraperitoneally after TNBS instillation (FIG. 4B)
  interior of colons dissected longitudinally (bleeding at the distal ends): do not show such damage
[5]; 10 mg/kg twice daily intraperitoneally, listed as SPH-X
  histology of colon sections (H&E): substantially protects the colon from injury caused by TNBS; also recorded: treats or prevents such damage
[5]; 20 mg/kg BID intraperitoneal, 7 days after TNBS instillation (FIG. 4A), listed as SPH-X
  gross morphology of colons: appear more normal; also recorded: substantially reverses damage caused by TNBS
[6]
  TNF-α protein level (Western blot): no TNF-α protein was seen; also recorded: reduces or stops formation of TNF-α
[1]; [11]
  IL-6 production: does not show reduction in IL-6
[1]; UC Donors A and B, 10-300 nM
  IL-6 production: significant dose-related decreases
[7]
  release of IL-17A: dose-related reductions
[8]
  release of tumor necrosis factor alpha (TNF-α): dose-related reductions

## C[C@@H]1CCN(C(=O)CC#N)C[C@@H]1N(C)c1ncnc2[nH]ccc12 [Tofacitinib]
[4]; 30 mg/kg BID p.o.
  CW/BW ratio improved by: 9%
  CW/CL ratio improved by: 37%
  CW/CL/BW ratio improved by: 14%

## COCCCOc1cc(C[C@@H](C[C@H](N)[C@@H](O)C[C@H](C(=O)NCC(C)(C)C(N)=O)C(C)C)C(C)C)ccc1OC [aliskiren]
[9]
  bioavailability: 2.5%
[10]
  effect on induced colitis: ameliorated this induced colitis
